Experimental data published in patent US20090215638A1, “ANTIBIOTIC SUSCEPTIBILITY AND VIRULENCE FACTOR DETECTION IN PSEUDOMONAS AERUGINOSA” (priority 2005, published 2009).

Assays:
[1] = test system: P. aeruginosa clinical isolates; test: Antibiotic susceptibility testing, NEG MIC Type 30 panel on MicroScan WalkAway-96 SI, MICs interpreted according to NCCLS guidelines; format: cell-based, Pseudomonas aeruginosa; settings: for 60 MIC: MIC of resistant isolates
From the text: The wild-type reference strain P. aeruginosa PAO1 was obtained from the ATCC (AT47085). The other P. aeruginosa strains were collected from patients at the Robert Bosch Hospital in Stuttgart, Germany. They were recovered from respiratory samples (n=51), swabs (n=5), urine (n=2) and feces (n=2). All isolates were identified with the API 20NE system (bioMerieux, Marcy l'Etoile, France) and the NEG Breakpoint Combo Type 30 panel on the MicroScan WalkAway ®-96 SI system (Dade Behring, Liederbach, Germany). All bacterial strains were either routinely cultured at 37° C. on Mueller-Hinton (MH) agar or grown in Luria Bertani broth (LB).
The antibiotic susceptibility was determined with the NEG MIC Type 30 panel on the MicroScan WalkAway ®-96 SI system. The MICs were interpreted according to the NCCLS guidelines.
The test collective of P. aeruginosa isolates was recovered from three intensive care units (ICU) or other hospital wards as far as an unusual multidrug resistance was observed. […] 4.

[2] = test system: P. aeruginosa clinical isolates; parameters: species or system Pseudomonas aeruginosa; settings: predicted from mutations and resistance genes found by array in 60 isolates
Protocol: Chromosomal DNA was extracted with the QIAmp DNA Mini Kit, plasmid DNA with the QIAprep Spin Miniprep Kit according to manufacturer's instructions (Qiagen, Hilden, Germany). A set of 4 multiplex PCRs (Tab. 1) was set up to amplify the sequences of interest from the chosen genes. The PCRs were carried out with the Advantage®-GC Genomic PCR Kit (BD Bioscience, San Jose, USA) according to manufacturer's instructions, for fluorescence labeling 5 μl of each 1 mM dNTP was used, for dCTP a 2:3 mixture of Cy3-dCTP and dCTP. The cycle reactions consisted of 30 cycles of 30 s at 95° C., 30 s at 55° C. and 1 min at 72° C. PCR products were purified with the QIAquick PCR Purification Kit (Qiagen, Hilden, Germany) according to the manufacturer's instructions. The quality and sizes of PCR products were checked on a lab-on-a-chip Bioanalyzer 2100 electrophoresis with the DNA 1500 LabChip kit (Agilent, Böblingen, Germany). Sequencing was performed on the ABI PRISM® 310 Genetic Analyzer using the BigDyee® Terminator Cycle Sequencing Kit v1.1 (Applied Biosystems, Foster City, USA). The manufacturer's protocol was followed using the same primers as for the multiplex PCRS. […]
The oligonucleotide arrays were scanned with a arrayWoRx Biochip Reader (Applied Precision, Marlborough, UK). The scanner settings for fluorescence signal acquisition were set to “High Precision” and 0.2 s acquisition time. […]

[3] = Table 3, test collective of 60 clinical isolates
[4] = Table 6, phenotypic resistance rate, 60 clinical isolates
[5] = Table 6, phenotypic resistance, 60 clinical isolates

Compound	% of resistant isolates out of 60 [1, 3] [%]	Number of resistant isolates out of 60 [1, 3]	60 MIC ([1]; Table 6) [mg/L]	% of resistant isolates out of 60 [1, 4] [%]	Number of resistant isolates out of 60 [1, 5]	susceptibility rate ([1]; test collective of isolates)	Susceptibility profile, Isolate 1 ([1]; first of 3 consecutive isolates from the same patient)	Susceptibility profile, Isolate 3 ([1]; last of 3 consecutive isolates from the same patient, within three weeks)	Susceptibility profile, Isolate 2 ([1]; second of 3 consecutive isolates from the same patient, collected one week after the first)	resistance rate ([1]; test collective of isolates) [%]	Cumulative resistance predicttion deduced from array [2] [%]
CC(C)(O/N=C(\C(=O)N[C@@H]1C(=O)N2C(C(=O)[O-])=C(C[n+]3ccccc3)CS[C@H]12)c1csc(N)n1)C(=O)O [Ceftazidim, ceftazidime]	33	20	>16	33	20						
C[C@@H](O)[C@H]1C(=O)N2C(C(=O)O)=C(SCCN=CN)C[C@H]12 [Imipenem, imipenem]						less than 55%					
NC[C@H]1O[C@H](O[C@H]2[C@H](O)[C@@H](O[C@H]3O[C@H](CO)[C@@H](O)[C@H](N)[C@H]3O)[C@H](N)C[C@@H]2N)[C@H](N)C[C@@H]1O [Tobramycin, tobramycin]							susceptible	resistance	susceptible		
colistin	0	0		0	0					0	0
gentamicin	37	22	>8	37	22						45
piperacillin/tazobactam	33	20	>64	33	20						
